Reference: patent US20210292347A1, “DIHETEROCYCLIC TRIAZINONE NUCLEOSIDE ANALOGS AND THEIR USE FOR MEDICATION” (priority 2020, published 2021)

Tested on: mice sarcoma S180
Test: Growth inhibition of S180 sarcoma in mice
Type: in vivo, Kunming healthy mice
Conditions: for in-vivo anti-tumor efficacy, statistical significance (in words): S180 sarcoma in mice, doses and routes of Table 3
[1] = Mus musculus, S-180, mice, ip, read-out: Inhibition rate (%) S180 sarcoma
[2] = Mus musculus, S-180, mice, iv, read-out: Inhibition rate (%) S180 sarcoma

## CCCc1nn(C(N)=O)c2c(=O)n(C3CSC(CO)O3)nnc12 (centres unmarked) [Example 97, 3-(2-(hydroxymethyl)-1,3-oxathiolan-5-yl)-4-oxo-7-propyl-3H-pyrazolo[4,3-d][1,2,3]triazine-5(4H)-carboxamide]
[1]
  inhibition in vivo at 100 mg/kg: < 40%
  in-vivo anti-tumor efficacy, statistical significance (in words): statistically significant

## CCCc1nn(CO)c2c(=O)n(C3CSC(CO)O3)nnc12 (centres unmarked) [Example 94, 5-(hydroxymethyl)-3-(2-(hydroxymethyl)-1,3-oxathiolan-5-yl)-7-propyl-3H-pyrazolo[4,3-d][1,2,3]triazin-4(5H)-one]
Mus musculus, S-180, mice, iv, 30 mg/kg, read-out: Inhibition rate (%) S180 sarcoma
  inhibition in vivo at 30 mg/kg: < 40%
  in-vivo anti-tumor efficacy, statistical significance (in words): statistically significant

## CCCc1nn(C)c2c(=O)n(C3OC(CO)C(O)C3O)nnc12 (centres unmarked) [Example 23, 3-(3,4-dihydroxy-5-(hydroxymethyl)tetrahydrofuran-2-yl)-5-methyl-7-propyl-3H-pyrazolo [4,3-d][1,2,3]triazin-4(5H)-one]
[1]
  inhibition in vivo at 100 mg/kg: < 40%
  in-vivo anti-tumor efficacy, statistical significance (in words): statistically significant

## CCCc1nn(CO)c2c(=O)n(C3OC(CO)C(O)C3O)nnc12 (centres unmarked) [Example 31, 3-(3,4-dihydroxy-5-(hydroxymethyl)tetrahydrofuran-2-yl)-5-(hydroxymethyl)-7-propyl-3H-pyrazolo[4,3-d][1,2,3]triazin-4(5H)-one]
[1]
  inhibition in vivo at 100 mg/kg: < 40%
  in-vivo anti-tumor efficacy, statistical significance (in words): statistically significant

## NC(=O)n1nc([N+](=O)[O-])c2nnn(C3OC(CO)C(O)C3O)c(=O)c21 (centres unmarked) [Example 60, 3-(3,4-dihydroxy-5-(hydroxymethyl)tetrahydrofuran-2-yl)-7-nitro-4-oxo-3H-pyrazolo[4,3-d][1,2,3]triazine-5(4H)-carboxamide]
[2]
  inhibition in vivo at 15 mg/kg: < 40%
  in-vivo anti-tumor efficacy, statistical significance (in words): statistically significant

## CCCc1nn(C)c2c(=O)n(C3CSC(CO)O3)nnc12 (centres unmarked) [Example 91, 3-(2-(hydroxymethyl)-1,3-oxathiolan-5-yl)-5-methyl-7-propyl-3H-pyrazolo[4,3-d][1,2,3]triazin-4(5H)-one]
[1]
  inhibition in vivo at 200 mg/kg: < 40%
  in-vivo anti-tumor efficacy, statistical significance (in words): statistically significant

## CCCc1nn(C)c2c(=O)n(C3OC(COC(C(=O)O)P(=O)(NC(C)C)NC(C)C)C(O)C3O)nnc12 (centres unmarked) [Example 106, 2-(bis(isopropylamino)phosphoryl)-2-((3,4-dihydroxy-5-(5-methyl-4-oxo-7-propyl-4,5-dihydro-3H-pyrazolo [4,3-d][1,2,3]triazin-3-yl)tetrahydrofuran-2-yl)methoxy)acetic acid]
[2]
  inhibition in vivo at 50 mg/kg: < 20%

## 2-(3,4-dihydroxy-5-(hydroxymethyl)tetrahydrofuran-2-yl)-7-hydroxy-5-propyl-2,7-dihydro-1H-pyrazolo[4,3-d][1,2,3]triazin-1-one [Example 14]
  in-vivo anti-tumor efficacy, statistical significance (in words): statistically significant
mice, iv, 12.5 mg/kg
  Inhibition rate (%) S180 sarcoma: ++ (++ represent of Inhibition rate % <40)

## Cn1nc(N2CCCCC2)c2nnn(C3OC(CO)C(O)C3O)c(=O)c21 (centres unmarked) [Example 27, 3-(3,4-dihydroxy-5-(hydroxymethyl)tetrahydrofuran-2-yl)-5-methyl-7-(piperidin-1-yl)-3H-pyrazolo[4,3-d][1,2,3]triazin-4(5H)-one]
[2]
  inhibition in vivo at 15 mg/kg: < 20%

## CCCc1nn(O)c2c(=O)n(C3OC(COC(C(=O)O)P(=O)(NC(C)C)NC(C)C)C(O)C3O)nnc12 (centres unmarked) [Example 103, 2-(bis(isopropylamino)phosphoryl)-2-((3,4-dihydroxy-5-(5-hydroxy-4-oxo-7-propyl-4,5-dihydro-3H-pyrazolo[4,3-d][1,2,3]triazin-3-yl)tetrahydrofuran-2-yl)methoxy)acetic acid]
[1]
  inhibition in vivo at 100 mg/kg: < 20%

## Cn1nc(C#N)c2nnn(C3OC(CO)C(O)C3O)c(=O)c21 (centres unmarked) [Example 26, 3-(3,4-dihydroxy-5-(hydroxymethyl)tetrahydrofuran-2-yl)-5-methyl-4-oxo-4,5-dihydro-3H-pyrazolo[4,3-d][1,2,3]triazine-7-carbonitrile]
Mus musculus, S-180, mice, ip, 70 mg/kg, read-out: Inhibition rate (%) S180 sarcoma
  inhibition in vivo at 70 mg/kg: < 40%
  in-vivo anti-tumor efficacy, statistical significance (in words): statistically significant

## COc1ccc(C(=O)Nc2nn(C)c3c(=O)n(C4OC(CO)C(O)C4O)nnc23)cc1 (centres unmarked) [Example 29, N-(3-(3,4-dihydroxy-5-(hydroxymethyl)tetrahydrofuran-2-yl)-5-methyl-4-oxo-4,5-dihydro-3H-pyrazolo[4,3-d][1,2,3]triazin-7-yl)-4-methoxybenzamide]
[2]
  inhibition in vivo at 15 mg/kg: < 20%

## COc1ccc(C(=O)Nc2nn(C(N)=O)c3c(=O)n(C4OC(CO)C(O)C4O)nnc23)cc1 (centres unmarked) [Example 61, 3-(3,4-dihydroxy-5-(hydroxymethyl)tetrahydrofuran-2-yl)-7-(4-methoxybenzamido)-4-oxo-3H-pyrazolo[4,3-d][1,2,3]triazine-5(4H)-carboxamide]
Mus musculus, S-180, mice, iv, 12.5 mg/kg, read-out: Inhibition rate (%) S180 sarcoma
  inhibition in vivo at 12.5 mg/kg: < 20%

## CCCc1nn(C(N)=O)c2c(=O)n(C3OC(CO)C(O)C3O)nnc12 (centres unmarked) [Example 55, 3-(3,4-dihydroxy-5-(hydroxymethyl)tetrahydrofuran-2-yl)-4-oxo-7-propyl-3H-pyrazolo [4,3-d][1,2,3]triazine-5(4H)-carboxamide]
[1]
  inhibition in vivo at 100 mg/kg: < 40%
  in-vivo anti-tumor efficacy, statistical significance (in words): statistically significant

## O=c1c2c(nnn1C1OC(CO)C(O)C1O)c([N+](=O)[O-])nn2CO (centres unmarked) [Example 36, 3-(3,4-dihydroxy-5-(hydroxymethyl)tetrahydrofuran-2-yl)-5-(hydroxymethyl)-7-nitro-3H-pyrazolo [4,3-d][1,2,3]triazin-4(5H)-one]
[1]
  inhibition in vivo at 200 mg/kg: < 40%
  in-vivo anti-tumor efficacy, statistical significance (in words): statistically significant

## CCCc1nn(C)c2c(=O)n(COC(CO)CO)nnc12 [Example 126, 3-(((1,3-dihydroxypropan-2-yl)oxy)methyl)-5-methyl-7-propyl-3H-pyrazolo[4,3-d][1,2,3]triazin-4(5H)-one]
[2]
  inhibition in vivo at 50 mg/kg: < 20%

## Cn1nc([N+](=O)[O-])c2nnn(C3OC(CO)C(O)C3O)c(=O)c21 (centres unmarked) [Example 28, 3-(3,4-dihydroxy-5-(hydroxymethyl)tetrahydrofuran-2-yl)-5-methyl-7-nitro-3H-pyrazolo [4,3-d][1,2,3]triazin-4(5H)-one]
Mus musculus, S-180, mice, iv, 20 mg/kg, read-out: Inhibition rate (%) S180 sarcoma
  inhibition in vivo at 20 mg/kg: < 40%
  in-vivo anti-tumor efficacy, statistical significance (in words): statistically significant

## Cn1nc(N)c2nnn(C3OC(CO)C(O)C3O)c(=O)c21 (centres unmarked) [Example 24, 7-amino-3-(3,4-dihydroxy-5-(hydroxymethyl)tetrahydrofuran-2-yl)-5-methyl-3H-pyrazolo [4,3-d][1,2,3]triazin-4(5H)-one]
[1]
  inhibition in vivo at 300 mg/kg: < 40%
  in-vivo anti-tumor efficacy, statistical significance (in words): statistically significant

## CCCn1nnc2nnn(C3OC(CO)C(O)C3O)c(=O)c21 (centres unmarked) [Example 147, 6-(3,4-dihydroxy-5-(hydroxymethyl)tetrahydrofuran-2-yl)-1-propyl-1H-[1,2,3]triazolo[4,5-d][1,2,3]triazin-7(6H)-one]
[1]
  inhibition in vivo at 300 mg/kg: < 20%

## O=c1c2c(nnn1C1OC(CO)C(O)C1O)c(N1CCCCC1)nn2O (centres unmarked) [Example 18, 3-(3,4-dihydroxy-5-(hydroxymethyl)tetrahydrofuran-2-yl)-5-hydroxy-7-(piperidin-1-yl)-3H-pyrazolo [4,3-d][1,2,3]triazin-4(5H)-one]
[1]
  inhibition in vivo at 200 mg/kg: < 20%
